Assay results as given in patent publication US12030904B2 (priority 2020, dated 2024).
Where two headings read alike, the source gives them in different places.

Columns and labels:
[1] = A549 cytotoxicity analysis (CellTiter-Glo); assay type: cell-based; conditions: human, A549 cells
Experimental: The cytotoxicity of compounds was determined in A549 cells in the following manner. Compounds (40 nL) were spotted onto 384-well Grenier plates prior to seeding 5000 A549 cells/well in a volume of 40 μL culture medium. The plates were incubated at 37° C. for 48 hours with 5% CO2. On day 2, 40 μL of CellTiter-Glo (Promega) was added and mixed 5 times. Plates were read for luminescence on an Envision (PerkinElmer) and the CC50 (compound concentration for reducing 50% of luminescence signal as a measure of cell viability) were calculated using a nonlinear regression model (four parameters). Two experiments were performed with technical duplicates.

MT4 cytotoxicity (CC50) = conditions: human, MT4 cells
SARS-CoV-2 = assay: microbe, parasite or virus in culture; assay type: cell-based
[2] = test system: Recombinant Respiratory Syncytial virus strain A2 containing the firefly luciferase reporter (RSV-Fluc); assay: microbe, parasite or virus in culture; assay type: cell-based; conditions: human respiratory syncytial virus, NHBE
[3] = Severe acute respiratory syndrome coronavirus 2, 48 h, read-out: SARS-CoV-2 EC50
[4] = 72 h, read-out: RSV-Fluc EC50 (NHBE), NHBE cells, three days, Table 1
[5] = 72 h, read-out: RSV-Fluc EC50 (NHBE), NHBE cells, three days, Table 2
[6] = Severe acute respiratory syndrome coronavirus 2, read-out: SARS EC50

With `CCCCCCCCCCCCCCCCCCCOC[C@H](COP(=O)(O)OC[C@H]1O[C@@](C#N)(c2ccc3c(N)ncnn23)[C@H](O)[C@@H]1O)OCc1ccccc1` [Example 7, ((2R,3S,4R,5R)-5-(4-aminopyrrolo[2,1-f][1,2,4]triazin-7-yl)-5-cyano-3,4-dihydroxytetrahydrofuran-2-yl)methyl ((R)-2-(benzyloxy)-3-(nonadecyloxy)propyl) hydrogen phosphate] as the compound, how does the CC50 at 48 h ([1]; 48 hours, Table 1) read?
Its CC50 at 48 h is over 50000 nM.

And the CC50 (MT4 cytotoxicity (CC50); MT4 CC50, Table 1a)?
Its CC50 is 13900 nM.

And the EC50 (SARS-CoV-2; [3])?
Its EC50 is 370 nM.

What about the EC50 [2, 4] of the same compound?
The EC50 was 80 nM.

Which CC50 at 48 h ([1]; Table 3) does the source give for `CCCCCCCCCCCCCCCCCCCOC[C@H](COP(=O)(O)OC[C@H]1O[C@@](C#N)(c2ccc3c(N)ncnn23)[C@H](O)[C@@H]1O)OCc1cc(F)cc(C#N)c1` [Example 70, ((2R,3S,4R,5R)-5-(4-aminopyrrolo[2,1-f][1,2,4]triazin-7-yl)-5-cyano-3,4-dihydroxytetrahydrofuran-2-yl)methyl ((R)-2-((3-cyano-5-fluorobenzyl)oxy)-3-(nonadecyloxy)propyl) hydrogen phosphate] here?
Its CC50 at 48 h is 1100 nM.

What about the CC50 (MT4 cytotoxicity (CC50); MT4 CC50, Table 2a) of the same compound?
The CC50 was 854 nM.

And the EC50 [2, 5]?
The EC50 was 60 nM.

And the EC50 ([2]; read-out: RSV EC50, Table 2a)?
Its EC50 is 66 nM.

Which CC50 at 48 h ([1]; 48 hours, Table 1) does the source give for `CCCCCCCCCCCCCCCCCCOC[C@@H](COP(=O)(O)OC[C@H]1O[C@@](C#N)(c2ccc3c(N)ncnn23)[C@H](O)[C@@H]1O)OCc1ccccc1` [Example 18, ((2R,3S,4R,5R)-5-(4-aminopyrrolo[2,1-f][1,2,4]triazin-7-yl)-5-cyano-3,4-dihydroxytetrahydrofuran-2-yl)methyl ((S)-2-(benzyloxy)-3-(octadecyloxy)propyl) hydrogen phosphate] here?
Its CC50 at 48 h is over 50000 nM.

What about the EC50 (SARS-CoV-2; [3]) of the same compound?
Its EC50 is 320 nM.

What about the EC50 [2, 4] of the same compound?
Its EC50 is 110 nM.

Which CC50 (MT4 cytotoxicity (CC50); MT4 CC50, Table 4) does the source give for `CCCCCCCCCCCCCCCCCCOC[C@H](COP(=O)(O)OC[C@H]1O[C@@](C#N)(c2ccc3c(N)ncnn23)[C@H](O)[C@@H]1O)OCc1ccc(F)c(C#N)c1` [Example 98, [(2R,3S,4R,5R)-5-(4-aminopyrrolo[2,1-f][1,2,4]triazin-7-yl)-5-cyano-3,4-dihydroxy-tetrahydrofuran-2-yl]methyl [(2R)-2-[(3-cyano-4-fluoro-phenyl)methoxy]-3-octadecoxy-propyl] hydrogen phosphate] here?
The CC50 was 8980 nM.

What about the EC50 (SARS-CoV-2; [6]) of the same compound?
The EC50 was 1300 nM.

And the EC50 ([2]; read-out: RSV EC50, Table 4)?
Its EC50 is 1000 nM.

For `CCCCCCCCCCCCCCCCCCOC[C@H](COP(=O)(O)OC[C@H]1O[C@@](C#N)(c2ccc3c(N)ncnn23)[C@H](O)[C@@H]1O)OCc1ccc(C#N)cc1F` [Example 53, ((2R,3S,4R,5R)-5-(4-aminopyrrolo[2,1-f][1,2,4]triazin-7-yl)-5-cyano-3,4-dihydroxytetrahydrofuran-2-yl)methyl ((R)-2-((4-cyano-2-fluorobenzyl)oxy)-3-(octadecyloxy)propyl) hydrogen phosphate], which CC50 (MT4 cytotoxicity (CC50); MT4 CC50, Table 2a) is on record?
Its CC50 is 1840 nM.

And the EC50 (SARS-CoV-2; [6])?
Its EC50 is 912 nM.

And the EC50 ([2]; read-out: RSV EC50, Table 2a)?
Its EC50 is 32 nM.

For `CCCCCCCCCCCCCCCCCCOC[C@H](COP(=O)(O)OC[C@H]1O[C@@](C#N)(c2ccc3c(N)ncnn23)[C@H](O)[C@@H]1O)OCc1cccc(C#N)n1` [Example 107, [(2R,3S,4R,5R)-5-(4-Aminopyrrolo[2,1-f][1,2,4]triazin-7-yl)-5-cyano-3,4-dihydroxy-tetrahydrofuran-2-yl]methyl [(2R)-2-[(6-cyano-2-pyridyl)methoxy]-3-octadecoxy-propyl] hydrogen phosphate], which CC50 (MT4 cytotoxicity (CC50); MT4 CC50, Table 4) is on record?
The CC50 was 885 nM.

What about the EC50 (SARS-CoV-2; [6]) of the same compound?
Its EC50 is 370 nM.

And the EC50 ([2]; read-out: RSV EC50, Table 4)?
Its EC50 is 80 nM.

Which CC50 (MT4 cytotoxicity (CC50); MT4 CC50, Table 2a) does the source give for `CCCCCCCCCCCCOCCCOP(=O)(O)OC[C@H]1O[C@@](C#N)(c2ccc3c(N)ncnn23)[C@H](O)[C@@H]1O` [Example 57, ((2R,3S,4R,5R)-5-(4-Aminopyrrolo[2,1-f][1,2,4]triazin-7-yl)-5-cyano-3,4-dihydroxytetrahydrofuran-2-yl)methyl (3-(dodecyloxy)propyl) hydrogen phosphate] here?
Its CC50 is 50000 nM.

What about the EC50 (SARS-CoV-2; [6]) of the same compound?
Its EC50 is 10000 nM.

And the EC50 [2, 5]?
Its EC50 is 2200 nM.

What about the EC50 ([2]; read-out: RSV EC50, Table 2a) of the same compound?
Its EC50 is 2180 nM.

Which CC50 (MT4 cytotoxicity (CC50); MT4 CC50, Table 2a) does the source give for `CCCCCCCCCCCCCCCCOCCCOP(=O)(O)OC[C@H]1O[C@@](C#N)(c2ccc3c(N)ncnn23)[C@H](O)[C@@H]1O` [Example 60, ((2R,3S,4R,5R)-5-(4-Aminopyrrolo[2,1-f][1,2,4]triazin-7-yl)-5-cyano-3,4-dihydroxytetrahydrofuran-2-yl)methyl (3-(hexadecyloxy)propyl) hydrogen phosphate] here?
The CC50 was 25800 nM.

And the EC50 (SARS-CoV-2; [6])?
Its EC50 is 6950 nM.

And the EC50 [2, 5]?
The EC50 was 73 nM.

What about the EC50 ([2]; read-out: RSV EC50, Table 2a) of the same compound?
Its EC50 is 73 nM.

With `CCCCCCCCCCCCCCCCCOC[C@H](COP(=O)(O)OC[C@H]1O[C@@](C#N)(c2ccc3c(N)ncnn23)[C@H](O)[C@@H]1O)OCc1cc(F)cc(C#N)c1` [Example 35, ((2R,3S,4R,5R)-5-(4-aminopyrrolo[2,1-f][1,2,4]triazin-7-yl)-5-cyano-3,4-dihydroxytetrahydrofuran-2-yl)methyl ((R)-2-((3-cyano-5-fluorobenzyl)oxy)-3-(heptadecyloxy)propyl) hydrogen phosphate] as the compound, how does the CC50 (MT4 cytotoxicity (CC50); MT4 CC50, Table 2a) read?
Its CC50 is 425 nM.

And the EC50 (SARS-CoV-2; [6])?
The EC50 was 112 nM.

What about the EC50 ([2]; read-out: RSV EC50, Table 2a) of the same compound?
Its EC50 is 40 nM.

With `CCCCCCCCCCCCCCCCCCOC[C@H](COP(=O)(O)OC[C@H]1O[C@@](C#N)(c2ccc3c(N)ncnn23)[C@H](O)[C@@H]1O)Oc1ccc(C#N)nn1` [Example 80, ((2R,3S,4R,5R)-5-(4-aminopyrrolo[2,1-f][1,2,4]triazin-7-yl)-5-cyano-3,4-dihydroxytetrahydrofuran-2-yl)methyl ((R)-2-((6-cyanopyridazin-3-yl)oxy)-3-(octadecyloxy)propyl) hydrogen phosphate] as the compound, how does the CC50 (MT4 cytotoxicity (CC50); MT4 CC50, Table 4) read?
Its CC50 is 344 nM.

What about the EC50 (SARS-CoV-2; [6]) of the same compound?
The EC50 was 54 nM.

And the EC50 ([2]; read-out: RSV EC50, Table 4)?
The EC50 was 13 nM.

With `CCCCCCCCCCCCCCCCCCOC[C@H](COP(=O)(O)OC[C@H]1O[C@@](C#N)(c2ccc3c(N)ncnn23)[C@H](O)[C@@H]1O)Oc1cnc(C#N)c(OC)c1` [Example 83, ((2R,3S,4R,5R)-5-(4-aminopyrrolo[2,1-f][1,2,4]triazin-7-yl)-5-cyano-3,4-dihydroxytetrahydrofuran-2-yl)methyl ((R)-2-((6-cyano-5-methoxypyridin-3-yl)oxy)-3-(octadecyloxy)propyl) hydrogen phosphate] as the compound, how does the CC50 (MT4 cytotoxicity (CC50); MT4 CC50, Table 4) read?
Its CC50 is 164 nM.

And the EC50 (SARS-CoV-2; [6])?
Its EC50 is 40 nM.

What about the EC50 ([2]; read-out: RSV EC50, Table 4) of the same compound?
Its EC50 is 5 nM.

Which results are given for `CCCCCCCCCCCCCCCCCCOC[C@H](COP(=O)(O)OC[C@H]1O[C@@](C#N)(c2ccc3c(N)ncnn23)[C@H](O)[C@@H]1O)OCc1ccc(C#N)c(Cl)c1` [Example 23, ((2R,3S,4R,5R)-5-(4-aminopyrrolo[2,1-f][1,2,4]triazin-7-yl)-5-cyano-3,4-dihydroxytetrahydrofuran-2-yl)methyl ((R)-2-((3-chloro-4-cyanobenzyl)oxy)-3-(octadecyloxy)propyl) hydrogen phosphate]?
CC50 (MT4 cytotoxicity (CC50); MT4 CC50, Table 2a): 723 nM; EC50 (SARS-CoV-2; [6]): 459 nM; EC50 [2, 5]: 30 nM; EC50 ([2]; read-out: RSV EC50, Table 2a): 30 nM

For `CCCCCCCCCCCCCCCCCCOC[C@H](COP(=O)(O)OC[C@H]1O[C@@](C#N)(c2ccc3c(N)ncnn23)[C@H](O)[C@@H]1O)OCc1ccc(C#N)cc1C(F)(F)F` [Example 105, [(2R,3S,4R,5R)-5-(4-Aminopyrrolo[2,1-f][1,2,4]triazin-7-yl)-5-cyano-3,4-dihydroxy-tetrahydrofuran-2-yl]methyl [(2R)-2-[[4-cyano-2-(trifluoromethyl)phenyl]methoxy]-3-octadecoxy-propyl] hydrogen phosphate], which CC50 (MT4 cytotoxicity (CC50); MT4 CC50, Table 4) is on record?
Its CC50 is 20100 nM.

And the EC50 (SARS-CoV-2; [6])?
Its EC50 is 10000 nM.

What about the EC50 ([2]; read-out: RSV EC50, Table 4) of the same compound?
The EC50 was 553 nM.

Which CC50 (MT4 cytotoxicity (CC50); MT4 CC50, Table 4) does the source give for `CCCCCCCCCCCCCCCCOC[C@H](COP(=O)(O)OC[C@H]1O[C@@](C#N)(c2ccc3c(N)ncnn23)[C@H](O)[C@@H]1O)OCc1ccc(C#N)c(F)c1` [Example 113, [(2R,3S,4R,5R)-5-(4-aminopyrrolo[2,1-f][1,2,4]triazin-7-yl)-5-cyano-3,4-dihydroxy-tetrahydrofuran-2-yl]methyl [(2R)-2-[(4-cyano-3-fluoro-phenyl)methoxy]-3-hexadecoxy-propyl] hydrogen phosphate] here?
Its CC50 is 5450 nM.

And the EC50 (SARS-CoV-2; [6])?
Its EC50 is 1100 nM.

What about the EC50 ([2]; read-out: RSV EC50, Table 4) of the same compound?
Its EC50 is 210 nM.

Which CC50 (MT4 cytotoxicity (CC50); MT4 CC50, Table 4) does the source give for `CCCCCCCCCCCCCCCCCCOC[C@H](COP(=O)(O)OC[C@H]1O[C@@](C#N)(c2ccc3c(N)ncnn23)[C@H](O)[C@@H]1O)OCc1ccc(OC)c(C#N)c1` [Example 115, [(2R,3S,4R,5R)-5-(4-Aminopyrrolo[2,1-f][1,2,4]triazin-7-yl)-5-cyano-3,4-dihydroxy-tetrahydrofuran-2-yl]methyl [(2R)-2-[(3-cyano-4-methoxy-phenyl)methoxy]-3-octadecoxy-propyl] hydrogen phosphate] here?
Its CC50 is 1460 nM.

What about the EC50 (SARS-CoV-2; [6]) of the same compound?
The EC50 was 390 nM.

What about the EC50 ([2]; read-out: RSV EC50, Table 4) of the same compound?
Its EC50 is 166 nM.

Which results are given for `CCCCCCCCCCCCCCCCCCOC[C@H](COP(=O)(O)OC[C@H]1O[C@@](C#N)(c2ccc3c(N)ncnn23)[C@H](O)[C@@H]1O)Oc1ccc(C#N)cn1` [Example 76, ((2R,3S,4R,5R)-5-(4-aminopyrrolo[2,1-f][1,2,4]triazin-7-yl)-5-cyano-3,4-dihydroxytetrahydrofuran-2-yl)methyl ((R)-2-((5-cyanopyridin-2-yl)oxy)-3-(octadecyloxy)propyl) hydrogen phosphate]?
CC50 (MT4 cytotoxicity (CC50); MT4 CC50, Table 4): 295 nM; EC50 (SARS-CoV-2; [6]): 48 nM; EC50 ([2]; read-out: RSV EC50, Table 4): 31 nM

Which results are given for `CCCCCCCCCCCCCCCCCCOC[C@H](COP(=O)(O)OC[C@H]1O[C@@](C#N)(c2ccc3c(N)ncnn23)[C@H](O)[C@@H]1O)OCc1ccc(C)cc1` [Example 40, ((2R,3S,4R,5R)-5-(4-aminopyrrolo[2,1-f][1,2,4]triazin-7-yl)-5-cyano-3,4-dihydroxytetrahydrofuran-2-yl)methyl ((R)-2-((4-methylbenzyl)oxy)-3-(octadecyloxy)propyl) hydrogen phosphate]?
CC50 (MT4 cytotoxicity (CC50); MT4 CC50, Table 2a): 2240 nM; EC50 (SARS-CoV-2; [6]): 185 nM; EC50 [2, 5]: 84 nM; EC50 ([2]; read-out: RSV EC50, Table 2a): 84 nM
